According to paper PMC9822553 (iScience, 2023):

Legend:
[1] = tested on: SARS-CoV-2 Omicron; assay type: cell-based
[2] = tested on: SARS-CoV-2 Delta; assay type: cell-based
[3] = tested on: A549-ACE2 cells
[4] = tested on: Vero cells

With `Cc1cc(C)nc(NC(=S)N2CCN(Cc3ccc(C(F)(F)F)cc3)CC2)c1` [NCT-503] the “inhibition of Omicron-induced caspase 3/7 activation” value [1] was “inhibited” and the “effect on SARS-CoV-2 replication in ALI HBE cultures” value [2] was “inhibited SARS-CoV-2 replication”.
For `CCN(CCO)CCCC(C)Nc1ccnc2cc(Cl)ccc12` (stereo not shown) [hydroxychloroquine], the drug-induced phospholipidosis [3] was “considerable phospholipidosis” and the drug-induced phospholipidosis [4] was “considerable phospholipidosis”.
